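All cell lines were grown in 96-well plates and treated with compound for 48 hours. The concentration for 50% growth inhibition is given as GI50. TGI: concentration producing complete growth inhibition.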
How the values were obtained:
Test in all cases: NCI anticancer screen, dose series, 48 h
786-0 renal = tested on: 786-0 renal
A498 renal = tested on: A498 renal
A549 NSCLC = tested on: A549 NSCLC
ACHN renal = tested on: ACHN renal
BT-549 breast = tested on: BT-549 breast
CAKI-1 renal = tested on: CAKI-1 renal
CCRF-CEM leukemia = tested on: CCRF-CEM leukemia
COLO 205 colon = tested on: COLO 205 colon
DU-145 prostate = tested on: DU-145 prostate
EKVX NSCLC = tested on: EKVX NSCLC
HCC-2998 colon = tested on: HCC-2998 colon
HCT-116 colon = tested on: HCT-116 colon
HCT-15 colon = tested on: HCT-15 colon
HL-60(TB) leukemia = tested on: HL-60(TB) leukemia
HOP-92 NSCLC = tested on: HOP-92 NSCLC
HS 578T breast = tested on: HS 578T breast
HT29 colon = tested on: HT29 colon
IGROV1 ovarian = tested on: IGROV1 ovarian
K-562 leukemia = tested on: K-562 leukemia
KM12 colon = tested on: KM12 colon
LOX IMVI melanoma = tested on: LOX IMVI melanoma
M14 melanoma = tested on: M14 melanoma
MALME-3M melanoma = tested on: MALME-3M melanoma
MCF7 breast = tested on: MCF7 breast
MDA-MB-231 breast = tested on: MDA-MB-231 breast
MDA-MB-435 = tested on: MDA-MB-435
MOLT-4 leukemia = tested on: MOLT-4 leukemia
NCI-H226 lung = tested on: NCI-H226 lung
NCI-H23 lung = tested on: NCI-H23 lung
NCI-H460 lung = tested on: NCI-H460 lung
NCI-H522 lung = tested on: NCI-H522 lung
NCI/ADR-RES ovarian = tested on: NCI/ADR-RES ovarian
OVCAR-3 ovarian = tested on: OVCAR-3 ovarian
OVCAR-4 ovarian = tested on: OVCAR-4 ovarian
OVCAR-5 ovarian = tested on: OVCAR-5 ovarian
OVCAR-8 ovarian = tested on: OVCAR-8 ovarian
PC-3 prostate = tested on: PC-3 prostate
RPMI-8226 leukemia = tested on: RPMI-8226 leukemia
RXF 393 renal = tested on: RXF 393 renal
SF-268 CNS = tested on: SF-268 CNS
SF-295 CNS = tested on: SF-295 CNS
SF-539 CNS = tested on: SF-539 CNS
SK-MEL-2 melanoma = tested on: SK-MEL-2 melanoma
SK-MEL-28 melanoma = tested on: SK-MEL-28 melanoma
SK-MEL-5 melanoma = tested on: SK-MEL-5 melanoma
SK-OV-3 ovarian = tested on: SK-OV-3 ovarian
SN12C renal = tested on: SN12C renal
SNB-19 CNS = tested on: SNB-19 CNS
SNB-75 CNS = tested on: SNB-75 CNS
SR leukemia = tested on: SR leukemia
SW-620 colon = tested on: SW-620 colon
T-47D breast = tested on: T-47D breast
TK-10 renal = tested on: TK-10 renal
U251 CNS = tested on: U251 CNS
UACC-257 melanoma = tested on: UACC-257 melanoma
UACC-62 melanoma = tested on: UACC-62 melanoma
UO-31 renal = tested on: UO-31 renal

CCN1/C(=C\c2cc[n+](CC)c3ccccc23)C=Cc2ccccc21
GI50 (786-0 renal): 465 nM
TGI (786-0 renal): 12 µM
GI50 (A498 renal): 187 nM
TGI (A498 renal): 2780 nM
GI50 (A549 NSCLC): 215 nM
TGI (A549 NSCLC): 18.1 µM
GI50 (ACHN renal): 1190 nM
TGI (ACHN renal): 5.88 µM
GI50 (BT-549 breast): 81.1 nM
TGI (BT-549 breast): 1500 nM
GI50 (CAKI-1 renal): 4.71 µM
TGI (CAKI-1 renal): 22.5 µM
GI50 (CCRF-CEM leukemia): 85.9 nM
TGI (CCRF-CEM leukemia): 13.4 µM
GI50 (COLO 205 colon): 102 nM
TGI (COLO 205 colon): 320 nM
GI50 (DU-145 prostate): 265 nM
TGI (DU-145 prostate): 13.4 µM
GI50 (EKVX NSCLC): 76.4 nM
TGI (EKVX NSCLC): 12.1 µM
GI50 (HCC-2998 colon): 141 nM
TGI (HCC-2998 colon): 2610 nM
GI50 (HCT-116 colon): 124 nM
TGI (HCT-116 colon): 10.3 µM
GI50 (HCT-15 colon): 2840 nM
TGI (HCT-15 colon): 13.3 µM
GI50 (HL-60(TB) leukemia): 123 nM
TGI (HL-60(TB) leukemia): 820 nM
GI50 (HOP-92 NSCLC): 161 nM
TGI (HOP-92 NSCLC): 937 nM
GI50 (HS 578T breast): 330 nM
TGI (HS 578T breast): 15.8 µM
GI50 (HT29 colon): 202 nM
TGI (HT29 colon): 10.8 µM
GI50 (IGROV1 ovarian): 360 nM
TGI (IGROV1 ovarian): 12.8 µM
GI50 (K-562 leukemia): 47.7 nM
TGI (K-562 leukemia): 12.8 µM
GI50 (KM12 colon): 104 nM
TGI (KM12 colon): 1420 nM
GI50 (LOX IMVI melanoma): 179 nM
TGI (LOX IMVI melanoma): 1520 nM
GI50 (M14 melanoma): 302 nM
TGI (M14 melanoma): 2470 nM
GI50 (MALME-3M melanoma): 138 nM
TGI (MALME-3M melanoma): 857 nM
GI50 (MCF7 breast): 114 nM
TGI (MCF7 breast): 1850 nM
GI50 (MDA-MB-231 breast): 273 nM
TGI (MDA-MB-231 breast): 10.2 µM
GI50 (MDA-MB-435): 109 nM
TGI (MDA-MB-435): 1160 nM
GI50 (MOLT-4 leukemia): 207 nM
TGI (MOLT-4 leukemia): 4.44 µM
GI50 (NCI-H226 lung): 301 nM
TGI (NCI-H226 lung): 13.1 µM
GI50 (NCI-H23 lung): 87.1 nM
TGI (NCI-H23 lung): 7.56 µM
GI50 (NCI-H460 lung): 193 nM
TGI (NCI-H460 lung): 1090 nM
GI50 (NCI-H522 lung): 197 nM
TGI (NCI-H522 lung): 10.3 µM
GI50 (NCI/ADR-RES ovarian): 13.8 µM
TGI (NCI/ADR-RES ovarian): 46.2 µM
GI50 (OVCAR-3 ovarian): 118 nM
TGI (OVCAR-3 ovarian): 1080 nM
GI50 (OVCAR-4 ovarian): 55.9 nM
TGI (OVCAR-4 ovarian): 12.2 µM
GI50 (OVCAR-5 ovarian): 611 nM
TGI (OVCAR-5 ovarian): 13.8 µM
GI50 (OVCAR-8 ovarian): 230 nM
TGI (OVCAR-8 ovarian): 13 µM
GI50 (PC-3 prostate): 117 nM
TGI (PC-3 prostate): 1850 nM
GI50 (RPMI-8226 leukemia): 50.3 nM
TGI (RPMI-8226 leukemia): 753 nM
GI50 (RXF 393 renal): 333 nM
TGI (RXF 393 renal): 4.27 µM
GI50 (SF-268 CNS): 291 nM
TGI (SF-268 CNS): 13.2 µM
GI50 (SF-295 CNS): 223 nM
TGI (SF-295 CNS): 2900 nM
GI50 (SF-539 CNS): 220 nM
TGI (SF-539 CNS): 11 µM
GI50 (SK-MEL-2 melanoma): 231 nM
TGI (SK-MEL-2 melanoma): 10.9 µM
GI50 (SK-MEL-28 melanoma): 275 nM
TGI (SK-MEL-28 melanoma): 2330 nM
GI50 (SK-MEL-5 melanoma): 60.5 nM
TGI (SK-MEL-5 melanoma): 215 nM
GI50 (SK-OV-3 ovarian): 236 nM
TGI (SK-OV-3 ovarian): 11.4 µM
GI50 (SN12C renal): 233 nM
TGI (SN12C renal): 11.9 µM
GI50 (SNB-19 CNS): 163 nM
TGI (SNB-19 CNS): 11.7 µM
GI50 (SNB-75 CNS): 169 nM
TGI (SNB-75 CNS): 871 nM
GI50 (SR leukemia): 152 nM
TGI (SR leukemia): 4.86 µM
GI50 (SW-620 colon): 230 nM
TGI (SW-620 colon): 7.81 µM
GI50 (T-47D breast): 40.3 nM
TGI (T-47D breast): 1750 nM
GI50 (TK-10 renal): 448 nM
TGI (TK-10 renal): 13.7 µM
GI50 (U251 CNS): 119 nM
TGI (U251 CNS): 12.7 µM
GI50 (UACC-257 melanoma): 135 nM
TGI (UACC-257 melanoma): 2360 nM
GI50 (UACC-62 melanoma): 179 nM
TGI (UACC-62 melanoma): 1270 nM
GI50 (UO-31 renal): 1890 nM
TGI (UO-31 renal): 8.1 µM

From PubChem BioAssay (NCI)
